17 molecules from patent US10759793B2, “2-(pyrazolopyridin-3-yl)pyrimidine derivatives as JAK inhibitors” (ALMIRALL, S.A., priority 2015, dated 2020) can be followed below.

What all share (type): biochemical
The target in experiment [1] is JAK2 (Homo sapiens (Human), UniProt O60674). As to the kind of experiment: In vitro JAK kinase assay (TR-FRET), JAK2. As to conditions: catalytic domain aa 826-1132, GST-fusion; ATP 0.2 μM; peptide 20 nM; 30 minutes at room temperature. Summed up: (§1)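 Each human JAK enzyme assayed on biotinylated poly(GT) peptide substrate, reaction 30 min at room temperature. Phosphorylation detected by TR-FRET after a 3 h detection incubation.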
JAK2, sequence (O60674 826-1132): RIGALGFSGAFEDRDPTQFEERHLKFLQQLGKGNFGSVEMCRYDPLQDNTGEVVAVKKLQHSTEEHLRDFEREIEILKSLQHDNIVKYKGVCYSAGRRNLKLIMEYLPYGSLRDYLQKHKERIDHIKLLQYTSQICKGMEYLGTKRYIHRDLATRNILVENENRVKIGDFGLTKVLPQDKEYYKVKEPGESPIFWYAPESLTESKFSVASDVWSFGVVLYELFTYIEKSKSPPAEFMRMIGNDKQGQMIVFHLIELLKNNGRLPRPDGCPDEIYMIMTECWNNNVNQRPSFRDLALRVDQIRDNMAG

In experiment [2] the target is JAK3 (Homo sapiens (Human), UniProt P52333). As to the kind of experiment: In vitro JAK kinase assay (TR-FRET), JAK3. As to conditions: catalytic domain aa 795-1124, GST-fusion; ATP 0.6 μM; peptide 140 nM; 30 minutes at room temperature. Summed up: as §1
JAK3, sequence (P52333 795-1124): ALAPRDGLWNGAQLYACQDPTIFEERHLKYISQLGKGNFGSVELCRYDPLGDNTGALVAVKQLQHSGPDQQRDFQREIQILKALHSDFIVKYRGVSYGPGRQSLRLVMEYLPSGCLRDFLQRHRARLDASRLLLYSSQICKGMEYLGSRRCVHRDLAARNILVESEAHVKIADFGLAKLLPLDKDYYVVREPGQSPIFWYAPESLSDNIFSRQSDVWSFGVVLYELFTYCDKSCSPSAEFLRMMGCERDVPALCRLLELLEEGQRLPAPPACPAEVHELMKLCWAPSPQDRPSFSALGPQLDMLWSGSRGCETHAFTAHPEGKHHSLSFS
Experiment [3] addresses JAK1 (Homo sapiens (Human), UniProt P23458). The experiment in a line: In vitro JAK kinase assay (TR-FRET), JAK1. As to conditions: catalytic domain aa 850-1154, GST-fusion; ATP 3 μM; peptide 60 nM; 30 minutes at room temperature. The method in brief:
as §1

JAK1, sequence (P23458 850-1154): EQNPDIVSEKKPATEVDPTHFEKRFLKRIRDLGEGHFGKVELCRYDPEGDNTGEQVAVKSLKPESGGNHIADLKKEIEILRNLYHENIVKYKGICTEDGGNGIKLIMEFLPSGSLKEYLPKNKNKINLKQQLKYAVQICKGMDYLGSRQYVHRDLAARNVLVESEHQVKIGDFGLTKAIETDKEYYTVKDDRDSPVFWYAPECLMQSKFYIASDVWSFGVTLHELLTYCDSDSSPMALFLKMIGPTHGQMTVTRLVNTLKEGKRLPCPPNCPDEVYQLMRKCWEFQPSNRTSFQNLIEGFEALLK

For `CN1CCN(c2nc(-c3cnn4ccccc34)nc(O[C@@H]3CCCN(C(=O)CO)C3)c2F)CC1` [Example 67, 2-((3R)-3-{[5-Fluoro-6-(4-methylpiperazin-1-yl)-2-pyrazolo[1,5-a]pyridin-3-ylpyrimidin-4-yl]oxy}piperidin-1-yl)-2-oxoethanol], the figures for the IC50 in experiment [1], in experiment [2] and in experiment [3] were 5 nM, 23 nM and 139 nM, respectively.
Taken in the same sequence, the figures for `CN1CCN(c2nc(-c3cnn4ccccc34)nc(O[C@@H]3CCCN(C(=O)CC#N)C3)c2F)CC1` [Example 68, 3-((3R)-3-{[5-Fluoro-6-(4-methylpiperazin-1-yl)-2-pyrazolo[1,5-a]pyridin-3-ylpyrimidin-4-yl]oxy}piperidin-1-yl)-3-oxopropanenitrile] were 1 nM, 6 nM and 48 nM.
Consider `O=C(CO)N1CCC[C@@H](Oc2nc(-c3cnn4ccccc34)nc(NCCO)c2F)C1` [Example 69, 2-[(3R)-3-({5-Fluoro-6-[(2-hydroxyethyl)amino]-2-pyrazolo[1,5-a]pyridin-3-ylpyrimidin-4-yl}oxy)piperidin-1-yl]-2-oxoethanol], for which the IC50 was 3 nM in experiment [1], 11 nM in experiment [2] and 37 nM in experiment [3].
For `N#CCC(=O)N1CCC[C@@H](Oc2nc(-c3cnn4ccccc34)nc(NCCO)c2F)C1` [Example 70, 3-[(3R)-3-({5-Fluoro-6-[(2-hydroxyethyl)amino]-2-pyrazolo[1,5-a]pyridin-3-ylpyrimidin-4-yl}oxy)piperidin-1-yl]-3-oxopropanenitrile], in that order: 3 nM, 8 nM and 28 nM.
For `Cc1cc(-c2nc(-c3cnn4ccccc34)nc(O[C@@H]3CCCN(C(=O)CO)C3)c2F)ccn1` [Example 71, 2-((3R)-3-{[5-Fluoro-6-(2-methylpyridin-4-yl)-2-pyrazolo[1,5-a]pyridin-3-ylpyrimidin-4-yl]oxy}piperidin-1-yl)-2-oxoethanol], in that order: 2 nM, 26 nM and 35 nM.
Taken in the same sequence, the figures for `Cc1cc(-c2nc(-c3cnn4ccccc34)nc(O[C@@H]3CCCN(C(=O)CC#N)C3)c2F)ccn1` [Example 72, 3-((3R)-3-{[5-Fluoro-6-(2-methylpyridin-4-yl)-2-pyrazolo[1,5-a]pyridin-3-ylpyrimidin-4-yl]oxy}piperidin-1-yl)-3-oxopropanenitrile] were 1 nM, 6 nM and 6 nM.
As for `N#CCC(=O)N1CCC[C@@H](Oc2nc(-c3cnn4ccccc34)nc(-c3ccnc(CO)c3)c2F)C1` [Example 73, 3-[(3R)-3-({5-Fluoro-6-[2-(hydroxymethyl)pyridin-4-yl]-2-pyrazolo[1,5-a]pyridin-3-ylpyrimidin-4-yl}oxy)piperidin-1-yl]-3-oxopropanenitrile], the IC50 in experiment [1] is 2 nM; in experiment [2], 27 nM; in experiment [3] it was 13 nM.
Taken in the same sequence, the figures for `O=C(CO)N1CCC[C@@H](Oc2nc(-c3cnn4ccccc34)nc(-c3ccnc(CO)c3)c2F)C1` [Example 74, 2-[(3R)-3-({5-Fluoro-6-[2-(hydroxymethyl)pyridin-4-yl]-2-pyrazolo[1,5-a]pyridin-3-ylpyrimidin-4-yl}oxy)piperidin-1-yl]-2-oxoethanol] were 1 nM, 4 nM and 3 nM.
Taken in the same sequence, the figures for `O=C(CO)N1CCC[C@@H](Oc2nc(-c3cnn4ccccc34)nc(N3CCC(O)CC3)c2F)C1` [Example 75, 1-(5-Fluoro-6-{[(3R)-1-glycoloylpiperidin-3-yl]oxy}-2-pyrazolo[1,5-a]pyridin-3-ylpyrimidin-4-yl)piperidin-4-ol] were 4 nM, 26 nM and 29 nM.
For `Cc1cc(-c2nc(-c3cnn4ccccc34)nc(N(C)[C@@H]3CCCN(C(=O)CO)C3)c2F)ccn1` [Example 77, 2-{(3R)-3-[[5-Fluoro-6-(2-methylpyridin-4-yl)-2-pyrazolo[1,5-a]pyridin-3-ylpyrimidin-4-yl](methyl)amino]piperidin-1-yl}-2-oxoethanol], in that order: 2 nM, 23 nM and 3 nM.
With `N#CCC(=O)N1CCC[C@@H](Nc2nc(-c3cnn4ccccc34)nc(-c3ccnc(CO)c3)c2F)C1` [Example 78, 3-[(3R)-3-({5-Fluoro-6-[2-(hydroxymethyl)pyridin-4-yl]-2-pyrazolo[1,5-a]pyridin-3-ylpyrimidin-4-yl}amino)piperidin-1-yl]-3-oxopropanenitrile], the IC50 in experiment [1] was 0.5 nM; in experiment [2] it was 1 nM; in experiment [3], 2 nM.
Taken in the same sequence, the figures for `O=C(CO)N1CCC[C@@H](Nc2nc(-c3cnn4ccccc34)nc(-c3ccncc3)c2F)C1` [Example 80, 2-{(3R)-3-[(5-Fluoro-2-pyrazolo[1,5-a]pyridin-3-yl-6-pyridin-4-ylpyrimidin-4-yl)amino]piperidin-1-yl}-2-oxoethanol] were 1 nM, 4 nM and 2 nM.
For `CN(C)c1ccc(-c2nc(-c3cnn4ccccc34)nc(N[C@@H]3CCCN(C(=O)CO)C3)c2F)cn1` [Example 81, 2-[(3R)-3-({6-[6-(Dimethylamino)pyridin-3-yl]-5-fluoro-2-pyrazolo[1,5-a]pyridin-3-ylpyrimidin-4-yl}amino)piperidin-1-yl]-2-oxoethanol], in that order: 1 nM, 2 nM and 3 nM.
For `Cc1ncc(-c2nc(-c3cnn4ccccc34)nc(N[C@@H]3CCCN(C(=O)CO)C3)c2F)cn1` [Example 82, 2-{(3R)-3-[(5-Fluoro-2′-methyl-2-pyrazolo[1,5-a]pyridin-3-yl-4,5′-bipyrimidin-6-yl)amino]piperidin-1-yl}-2-oxoethanol], in that order: 2 nM, 8 nM and 9 nM.
In the case of `N#CCC(=O)N1CCC[C@@H](Nc2nc(-c3cnn4ccccc34)nc(-c3ccc(CO)nc3)c2F)C1` [Example 85, 3-[(3R)-3-({5-Fluoro-6-[6-(hydroxymethyl)pyridin-3-yl]-2-pyrazolo[1,5-a]pyridin-3-ylpyrimidin-4-yl}amino)piperidin-1-yl]-3-oxopropanenitrile], the 50% inhibitory concentration (IC50) in experiment [1] is 1 nM; in experiment [2] it was 4 nM; in experiment [3], 1 nM.
As for `Cc1cc(-c2nc(-c3cnn4ccccc34)nc(N[C@@H]3CCCN(C(=O)CO)C3)c2F)cc(C)n1` [Example 86, 2-((3R)-3-{[6-(2,6-Dimethylpyridin-4-yl)-5-fluoro-2-pyrazolo[1,5-a]pyridin-3-ylpyrimidin-4-yl]amino}piperidin-1-yl)-2-oxoethanol], the results for the IC50 in experiment [1], in experiment [2] and in experiment [3] were 3 nM, 1 nM and 1 nM, respectively.
In the case of `Cc1cc(-c2nc(-c3cnn4ccccc34)nc(N[C@@H]3CCCN(C(=O)CC#N)C3)c2F)cc(C)n1` [Example 87, 3-((3R)-3-{[6-(2,6-Dimethylpyridin-4-yl)-5-fluoro-2-pyrazolo[1,5-a]pyridin-3-ylpyrimidin-4-yl]amino}piperidin-1-yl)-3-oxopropanenitrile], the IC50 in experiment [1] was 1 nM; in experiment [2], 3 nM; in experiment [3], 10 nM.
